Read-outs that look alike come from different tables or passages of the source.
Legend:
pinch skin graft = assay: Pinch skin graft survival test procedure; type: in vivo, male BALB/c donors, male C3 H(H-2K) recipients (mice); conditions: 4 mg/kg; intraperitoneally or orally; untreated grafts usually rejected within 6-7 days
Method: (§1) Immunosuppressive activity for representative compounds of this invention was evaluated in an in vitro standard pharmacological test procedure to measure lymphocyte proliferation (LAF) and in three in vivo standard pharmacological test procedures. The pinch skin graft test procedure measures the immunosuppressive activity of the compound tested as well as the ability of the compound tested to inhibit or treat transplant rejection. The adjuvant arthritis standard pharmacological test procedure, which measures the ability of the compound tested to inhibit immune mediated inflammation. The adjuvant arthritis test procedure is a standard pharmacological test procedure for rheumatoid arthritis. Representative compounds of this invention were also evaluated in a heart allograft standard pharmacological test procedure which measures immunosuppressive activity of the compound tested as well as the ability of the compound tested to inhibit or treat transplant rejection. The procedures for these standard pharmacological test procedures are provided below.
Representative compounds of this invention were also evaluated in an in vivo test procedure designed to determine the survival time of pinch skin graft from male BALB/c donors transplanted to male C3 H(H-2K) recipients. The method is adapted from Billingham R. E. and Medawar P. B., J. Exp. Biol. 28:385-402, (1951). Briefly, a pinch skin graft from the donor was grafted on the dorsum of the recipient as a allograft, and an isograft was used as control in the same region. The recipients were treated with either varying concentrations of test compounds intraperitoneally or orally. Rapamycin was used as a test control. Untreated recipients serve as rejection control. The graft was monitored daily and observations were recorded until the graft became dry and formed a blackened scab. This was considered as the rejection day. The mean graft survival time (number of days±S.D.) of the drug treatment group was compared with the control group. […] Results are expressed as the mean survival time in days. Untreated (control) pinch skin grafts are usually rejected within 6-7 days. Compounds were tested using a dose of 4 mg/kg.

[1] = tested on: adjuvant arthritis, uninjected (left) hind paw inflammation; assay: Adjuvant arthritis standard pharmacological test procedure; type: in vivo, male Wistar Lewis rats; conditions: 2 mg/kg, oral, uninjected paw at day 16; for Percent change in adjuvant arthritis versus control: 7 doses day 0-14, more negative = more potent
Method: as §1
The adjuvant arthritis standard pharmacological test procedure measures the ability of test compounds to prevent immune mediated inflammation and inhibit or treat rheumatoid arthritis. The following briefly describes the test procedure used. A group of rats (male inbread Wistar Lewis rats) are pre-treated with the compound to be tested (1 h prior to antigen) and then injected with Freud's Complete Adjuvant (FCA) in the right hind paw to induce arthritis. The rats are then orally dosed on a Monday, Wednesday, Friday schedule from day 0-14 for a total of 7 doses. Both hind paws are measured on days 16, 23, and 30. The difference in paw volume (mL) from day 16 to day 0 is determined and a percent change from control is obtained. […] The right hind paw inflammation, on the other hand, is caused by nonspecific inflammation. Compounds were tested at a dose of 2 mg/kg.

[2] = tested on: lymphocyte proliferation (thymus cells of normal BALB/c mice); assay: Comitogen-induced thymocyte proliferation procedure (LAF); type: cell-based; conditions: Mus musculus, read-out: LAF IC50
Method: as §1
The comitogen-induced thymocyte proliferation procedure (LAF) was used as an in vitro measure of the immunosuppressive effects of representative compounds. Briefly, cells from the thymus of normal BALB/c mice are cultured for 72 hours with PHA and IL-1 and pulsed with tritiated thymidine during the last six hours. Cells are cultured with and without various concentrations of rapamycin, cyclosporin A, or test compound. Cells are harvested and incorporated radioactivity is determined. Inhibition of lymphoproliferation is assessed as percent change in counts per minute from non-drug treated controls. For each compound evaluated, rapamycin was also evaluated for the purpose of comparison. An IC50 was obtained for each test compound as well as for rapamycin. […] The results obtained are provided as an IC50.

heart allograft = assay: Heterotropic heart allograft standard pharmacological test procedure; type: in vivo, BN rat neonate donors, male Lewis rat recipients; conditions: 300 μg/day, i.p.; untreated rejected in about 9-10 days
Method: as §1
The ability of the compounds of this invention to induce immunosuppression and inhibit or treat transplantation rejection was evaluated in a heterotropic heart allograft standard pharmacological test procedure that emulates transplantation rejection that occurs in humans. The following briefly describes the procedure that was used. […]

immunosuppression = conditions: cited from earlier work
[3] = tested on: adjuvant arthritis, a model for rheumatoid arthritis; conditions: in vivo; cited from earlier work
Candida albicans = conditions: in vitro and in vivo; cited from earlier work
[4] = tested on: formation of IgE-like antibodies; conditions: in vivo; cited from earlier work
tumor = conditions: alone or in combination with picibanil; cited from earlier work
[5] = tested on: experimental allergic encephalomyelitis, a model for multiple sclerosis; conditions: in vivo; cited from earlier work
[6] = 72 h culture with PHA and IL-1, tritiated thymidine incorporation

Compound | Skin graft survival (mean survival time ± S.D.) (pinch skin graft) [days] | Percent change in adjuvant arthritis versus control [1] [%] | IC50 [2, 6] [pM] | further results
CO[C@H]1C[C@@H]2CC[C@@H](C)[C@@](O)(O2)C(=O)C(=O)N2CCCC[C@H]2C(=O)O[C@H]([C@H](C)C[C@@H]2CC[C@@H](OC(=O)c3cnc(C)cn3)[C@H](OC)C2)CC(=O)[C@H](C)/C=C(\C)[C@@H](O)[C@@H](OC)C(=O)[C@H](C)C[C@H](C)/C=C/C=C/C=C/1C [Example 4, Rapamycin 42-ester with 5-methylpyrazine-2-carboxylic acid] | 11.33 ± 0.82 | -90 | 280 | 
CO[C@H]1C[C@@H]2CC[C@@H](C)[C@@](O)(O2)C(=O)C(=O)N2CCCC[C@H]2C(=O)O[C@H]([C@H](C)C[C@@H]2CC[C@@H](OC(=O)c3ccc(C)nc3)[C@H](OC)C2)CC(=O)[C@H](C)/C=C(\C)[C@@H](O)[C@@H](OC)C(=O)[C@H](C)C[C@H](C)/C=C/C=C/C=C/1C [Example 3, Rapamycin 42-ester with 6-methylpyridine-3-carboxylic acid] | 12.5 ± 0.58 | -87 | 600 | 
CO[C@H]1C[C@@H]2CC[C@@H](C)[C@@](O)(O2)C(=O)C(=O)N2CCCC[C@H]2C(=O)O[C@H]([C@H](C)C[C@@H]2CC[C@@H](OC(=O)c3cccnc3C)[C@H](OC)C2)CC(=O)[C@H](C)/C=C(\C)[C@@H](O)[C@@H](OC)C(=O)[C@H](C)C[C@H](C)/C=C/C=C/C=C/1C [Example 1, Rapamycin 42-ester with 2-methylnicotinic acid] | 11.2 ± 0.8 | -88 | 1000 | Heart allograft survival (mean survival time) (heart allograft): 29.9 days
C=CC[C@@H]1/C=C(\C)C[C@H](C)C[C@H](OC)[C@H]2O[C@@](O)(C(=O)C(=O)N3CCCC[C@H]3C(=O)O[C@H](/C(C)=C/[C@@H]3CC[C@@H](O)[C@H](OC)C3)[C@H](C)[C@@H](O)CC1=O)[C@H](C)C[C@@H]2OC [FK-506] |  |  |  | effective as immunosuppressive agents (immunosuppression): effective
CO[C@H]1C[C@@H]2CC[C@@H](C)[C@@](O)(O2)C(=O)C(=O)N2CCCC[C@H]2C(=O)O[C@H]([C@H](C)C[C@@H]2CC[C@@H](O)[C@H](OC)C2)CC(=O)[C@H](C)/C=C(\C)[C@@H](O)[C@@H](OC)C(=O)[C@H](C)C[C@H](C)/C=C/C=C/C=C/1C [rapamycin] |  |  |  | less immune induced inflammation than control rats [1]: 70-90%; effectiveness in adjuvant arthritis model [3]: effective; antifungal activity (Candida albicans): antifungal activity, particularly against Candida albicans, both in vitro and in vivo; IC50 ([2]; 72 h): 500 to 1900 pM; inhibition of formation of IgE-like antibodies [4]: effectively inhibited; antitumor activity (tumor): antitumor activity; effectiveness in experimental allergic encephalomyelitis model [5]: effective
CO[C@H]1C[C@@H]2CC[C@@H](C)[C@@](O)(O2)C(=O)C(=O)N2CCCC[C@H]2C(=O)O[C@H]([C@H](C)C[C@@H]2CC[C@@H](OC(=O)c3cccnc3)[C@H](OC)C2)CC(=O)[C@H](C)/C=C(\C)[C@@H](O)[C@@H](OC)C(=O)[C@H](C)C[C@H](C)/C=C/C=C/C=C/1C [Example 2, Rapamycin 42-ester with nicotinic acid] | 9.60 ± 0.89 |  | 170 | 
